Here are results for 11 compounds from patent publication US20100168112A1, “2-Substituted and 4-substituted aryl nitrone compounds” (RENOVIS, INC., priority 2004, published 2010).

pEC50: −log10 of the molar value. Where two headings read alike, the source gives them in different places.

Data set [1] is described as follows: Solubility measurement at pH 7.4. It counts as physicochemical. To be noted: aqueous buffer, thermodynamic from solid, phosphate buffer pH 7.4, room temperature. As for the experimental part: Nitrone compounds (>3 mg) of this invention were mixed with a phosphate buffer at pH 7.4 to make a >0.3 mg/mL mixture. The mixture was vortexed for more than 2 hours and equilibrated over 12 hours at room temperature. The equilibrated mixture was used to saturate a 0.45 μm Tuffryn syringe filter. After saturating, the remainder of the mixture was filtered through the saturated filter. The filtrate was diluted by 1, 10, 100, and 1000 fold and analyzed using a LC/MS/MS method with standard curve ranging from 1 to 1000 ng/mL.

Data set [2] is described as follows: DPPH free radical-scavenging/antioxidant assay. It counts as biochemical. As to conditions: 50 μM DPPH in 80% methanol; 24 h time point; read-out: EC50 (concentration at which a compound reduces by 50% the peak absorbance of DPPH at 520 nm). As for the experimental part: Nitrone compounds of the present invention were tested for their free-radical scavenging/antioxidant activity in an in vitro assay that is accepted by those skilled in the art as a model for conditions involving the generation of free radicals. The assay is based on a reaction between a free-radical donor, 2,2-diphenyl-1-picrylhydrazyl (DPPH), and a radical scavenger/antioxidant to be tested for free-radical scavenging activity. Upon donation of the free-radical electron to the purported radical scavenger, the peak visible absorbance of DPPH (515-520 nm) decreases so that optical density readings at this part of the visual spectrum reflect the progression of the following reaction:
where AH is a hypothetical radical scavenger/antioxidant. The assay is based on a protocol originally detailed in Brand-Williams, W. et al., 1995, Use of a Free Radical Method to Evaluate Antioxidant Activity, Lebensm. Wiss. Technol., 28:25-30, with further modifications described in L. R. Fukumoto and G. Mazza, 2000, Assessing Antioxidant and Prooxidant Activities of Phenolic Compounds, J. Agric. Food Chem., 48:3597-3604.
The antioxidant assay was performed using Perkin-Elmer 96-well, clear-bottom, black-wall plates (ordered from E & K Scientific Products) and a Tecan Safire absorbance plate reader. The positive controls were Trolox (6-hydroxy-2,5,7,8-tetramethylchromane-2-carboxylic acid, Sigma-Aldrich), BHA (2(3)-tert-butylhydroquinone monomethyl ether, Sigma-Aldrich), PBN (C-(phenyl)-N-(tert-butyl)nitrone, Sigma-Aldrich) and S-PBN (C-(2-sulfophenyl)-N-(tert-butyl)nitrone, sodium salt, prepared according to E. G. Janzen and R. V. Shetty, 1979, Tetrahedron Lett., 35: 3229-32), and the negative control (i.e., vehicle) was DMSO. In brief, 2 μL of 100× DMSO stock of the desired final concentration of each control or nitrone compound to be tested in the same batch was added to a separate well. To each well was then added 198 μL of a freshly made 50 μM DPPH (Sigma-Aldrich) solution in 80% methanol using a multi-channel pipette. The absorbance was immediately read on the plate reader at 520 nm and thereafter read periodically to assess kinetics until all reactions reached completion (i.e., steady state). Since the steady-state point was 24 h, the assay results are shown from the 24 h time point. The absorbance at 520 nm (OD) was plotted versus the concentrations of the controls and nitrone compounds to assess dose-response and interpolate the EC50 values of the controls and test compounds.
For orientation: DPPH is a stable violet radical that fades when it is reduced.

Data set [3] in a line: Microsomal stability in human liver microsomes. The data set is classed as in vitro ADME. As to conditions: NADPH, 37° C. As for the experimental part: Frozen Sprague-Dawley rat liver microsomes (RLM) were thawed on ice and gently mixed before use. The final reaction mixture consisted of a nitrone compound of this invention (at ˜500 ng/ml), 1 mM NADPH, and 0.5 mg/ml of RLM protein in 0.1 M PBS (pH7.4), with organic solvent concentration not exceeding 1% (v/v). Per set of incubations, a positive control compound was included. The mixture was first pre-incubated 3 to 5 minutes at 37° C. without NADPH, and the reaction was then initialized by the addition of NADPH and incubated at 37° C. for up to 30 minutes. An aliquot of the reaction mixture was sampled at the initiation of the reaction and at designated time after reaction started. The drawn samples were quenched with acetonitrile, diluted with mobile phase to ensure the detection of test article in the linear range, and analyzed by LC/MS/MS. Half-life or percentage of remaining nitrone compound was calculated using standard methods. A similar method, or a slight variation of it, was used to test the stability of nitrones in human liver microsomes (HLM).

Data set [4] can be described thus: Pharmacokinetic evaluation following intravenous and oral administration in rats. The data set is classed as in vivo. As to conditions: male, Sprague-Dawley; for Cmax / Tmax / bioavailability: 5 mg/kg; for Cmax: rat plasma; for Cmax / Tmax: oral gavage, 2 mg/mL at 2.5 mL/kg; for clearance / Vd / Tmax / bioavailability / half-life: plasma, rat; for clearance / Vd / half-life: 1 mg/kg; for clearance / Vd: intravenous administration, 1 mg/mL at 1.0 mL/kg; for clearance: read-out: CI (clearance) (converted); for Vd: read-out: Vd (volume of distribution); for bioavailability: po 2 mg/mL at 2.5 mL/kg vs iv 1 mg/mL at 1.0 mL/kg, dose-normalized, read-out: F (%) oral bioavailability; for half-life: intravenous, read-out: T1/2 elimination half life (converted). The procedure:
Male Sprague-Dawley rats were given at least 24 hours acclimation before experiment initiation. During acclimation period, all animals received food and water ad libitum. However, food (not water) was removed from the animal's cages up to 12 hours before initiation of the experiment. During the first 4 hours of experimentation, the animals received only water ad libitum. Two to three animals for iv and three animals for oral administration were tested. For iv formulation nitrone compounds of this invention were dissolved (1 mg/mL) in a mixture of 5% dimethyl acetamide (v/v), 0 to 4% Tween 80 (v/v), 10 to 40% PEG 400 (v/v) and the rest percentage of water (v/v). For oral formulation nitrone compounds of this invention were dissolved (2 mg/mL) in a mixture of 4% of 10% Tween in water and 96% of 0.5% carboxymethyl cellulose (medium viscosity) in water; or 4% of 10% Tween in water, 48% of 0.5% carboxymethyl cellulose (medium viscosity) in water, and 48% of 0.5% Hydroxypropyl Methylcellulose/0.2% Sodium Lauryl Sulfate in water. These formulations were stored at 5° C. until the experiment. Formulations were then stir-mixed at least half an hour before dosing. Exactly 200 μL of each left-over formulation was diluted with CH3CN/H2O for concentration analysis. The animals were weighed before dosing. The body weight was used to calculate the true dose for each animal:
IV dosing: • Dose volume (mL)=1.0 mL/kg The intravenous dose was administered through the jugular vein catheter or tail vein in less than 1 minute.
PO dosing: • Dose volume (mL)=2.5 mL/kg The oral dose was administered by oral gavage.
For IV dosing, blood samples were collected (using a pre-heparinized syringe) via the carotid artery or jugular vein catheter at t=2, 5, 15, 30, 60, 120, 180, 360, and 480 minutes post dosing. For PO dosing, blood samples were collected (using a pre-heparinized syringe) via the carotid artery or jugular vein catheter before dosing and at t=5, 15, 30, 60, 120, 180, 360, and 480 minutes post dosing. For some nitrone compounds a 1440 minutes (24 hours) sample was also taken for both IV and PO administrations. About 250 μL of blood was obtained at each time point from the animals. Equal volumes of 0.9% normal saline were replaced to prevent dehydration. The whole blood samples were maintained on ice until centrifugation. Blood samples were then centrifuged at 14,000 rpm for 10 minutes at 4° C. and the upper plasma layer transferred into a clean vial and stored at −80° C. The resulting plasma samples were then analyzed by mass spectroscopy using standard methods.
All the samples from above assays were analyzed on a PE-Sciex API 3000 triple quadrupole with a Turbo Ion Spray source. Nitrone compounds of this invention were separated from the matrix via a linear gradient reverse-phase chromatography using a C18 column, such as Thermo BDS Hypersil C18 (100×4.6 mm, 5 micron particle, 120A pore size). The mobile Phases were:
Nitrone compounds were detected by the mass spectrometer in the positive ion multiple reaction monitoring mode (MRM). For quantitative analysis, a standard curve was prepared by spiking a stock solution of the nitrone compound to the appropriate matrix to achieve a quantitation curve range and analyzed the standards in the same manner as the samples.
Pharmacokinetic parameters of the aryl nitrone compounds were determined by a noncompartmental analysis using WinNonlin-Pro (Version 4.1, Pharsight Corporation). Average and standard deviation of the parameters were calculated using standard formulas in Microsoft Excel.

Where [5] appears, read: read-out: Solubility @ pH 7.4 (μg/mL).

As to `O=S(=O)(c1ccccc1/C=[N+](\[O-])C1CCCCC1)N1CCOCC1` [Compound 36], the results for the solubility in data set [1] (read-out: Solubility @ pH 7.4) and in data set [1] (setting [5]) were 584 µM and 206 µg/mL, respectively. Also, the pEC50 in data set [2] was less than 3.00. Moreover, the “% of Nitrone Remaining at 30 min (Human)” value in data set [3] turned out to be 24.2%.
The corresponding values for `O=S(=O)(c1ccccc1/C=[N+](\[O-])Cc1ccccc1)N1CCOCC1` [Compound 37] are 5020 µM, 1810 µg/mL, 3.30 to 4.00 and 65.4%.
As for `CN1CCN(S(=O)(=O)c2ccccc2/C=[N+](\[O-])C(C)(C)C)CC1` [Compound 38, N-tert-Butyl-C-[2-(4-methyl-piperazine-1-sulfonyl)phenyl]nitrone], the solubility in data set [1] (read-out: Solubility @ pH 7.4) was greater than 1860 µM; in data set [1] (setting [5]), greater than 632 µg/mL. Besides, in data set [2], the pEC50 is less than 3.00. In data set [3], the “% of Nitrone Remaining at 30 min (Human)” value amounted to 76.6%.
For `CN1CCN(S(=O)(=O)c2ccccc2/C=[N+](\[O-])C2CCCCC2)CC1` [Compound 39, N-Cyclohexyl-C-[2-(4-methyl-piperazine-1-sulfonyl)phenyl]nitrone], the figures for the solubility in data set [1] (read-out: Solubility @ pH 7.4) and in data set [1] (setting [5]) were greater than 2630 µM and greater than 962 µg/mL, respectively. In addition, in data set [2], the pEC50 is less than 3.00. Also, the “% of Nitrone Remaining at 30 min (Human)” value in data set [3] turned out to be 41.9%.
For the compound `CN1CCN(S(=O)(=O)c2ccccc2/C=[N+](\[O-])Cc2ccccc2)CC1` [Compound 40, N-Benzyl-C-[2-(4-methyl-piperazine-1-sulfonyl)phenyl]nitrone], the solubility was greater than 2280 µM in data set [1] (read-out: Solubility @ pH 7.4) and greater than 851 µg/mL in data set [1] (setting [5]). In data set [2], the pEC50 was less than 3.00. Further, in data set [3], the “% of Nitrone Remaining at 30 min (Human)” value is reported as 27.9%.
For the compound `CN(c1ccccc1)S(=O)(=O)c1ccccc1/C=[N+](\[O-])C(C)(C)C` [Compound 41], the figures for the solubility in data set [1] (read-out: Solubility @ pH 7.4) and in data set [1] (setting [5]) were 413 µM and 143 µg/mL, respectively. Further, the pEC50 in data set [2] was less than 3.00. For the same compound, in data set [3], the “% of Nitrone Remaining at 30 min (Human)” value amounted to 0%.
The corresponding values for `CC(C)(C)/[N+]([O-])=C/c1ccccc1S(=O)(=O)N1CCCc2ccccc21` [Compound 44, N-tert-Butyl-C-[2-(3,4-dihydro-2H-quinoline-1-sulfonyl)phenyl]nitrone] are 156 µM, 58.1 µg/mL, less than 3.00 and 0%.
`O=S(=O)(c1ccccc1/C=[N+](\[O-])C1CCCCC1)N1CCCc2ccccc21` [Compound 45, N-Cyclohexyl-C-[2-(3,4-dihydro-2H-quinoline-1-sulfonyl)phenyl]nitrone]: the solubility in data set [1] (read-out: Solubility @ pH 7.4) came to 3.5 µM; in data set [1] (setting [5]), 1.42 µg/mL. Moreover, in data set [2], the pEC50 was less than 3.00. The “% of Nitrone Remaining at 30 min (Human)” value in data set [3] is given as 0%.
Regarding `CC(C)(C)NS(=O)(=O)c1ccccc1/C=[N+](\[O-])C(C)(C)C` [Compound 48, N-tert-Butyl-C-(2-tert-butylsulfamoyl-phenyl)nitrone], in data set [4], the highest level (Cmax) was 862 ng/mL, the clearance is 32.8 mL/min/kg, the Vd was determined as 1.39 L/kg and the Tmax stood at 15 min. Also, in data set [4], the bioavailability stood at 55.3% and the half-life was 29.4 min. In data set [2], the pEC50 was less than 3.00. Also, in data set [3], the “% of Nitrone Remaining at 30 min (Human)” value came out at 100%.
Turning to `CN(c1ccccc1)S(=O)(=O)c1ccc(/C=[N+](\[O-])C(C)(C)C)cc1` [Compound 54, N-tert-Butyl-C44-(methyl-phenyl-sulfamoyl)phenylInitrone], in data set [4], the highest level (Cmax) was 180 ng/mL, the clearance was 35.8 mL/min/kg, the Vd came to 3.21 L/kg and the Tmax is 15 min. In addition, in data set [4], the bioavailability was 13.2% and the half-life is 61.8 min. In addition, the pEC50 in data set [2] was less than 3.00. Besides, the “% of Nitrone Remaining at 30 min (Human)” value in data set [3] was 62%.
For the compound `CC(C)(C)NS(=O)(=O)c1ccc(/C=[N+](\[O-])C2CCCCC2)cc1` [Compound 60, N-Cyclohexyl-C-[4-(tert-butylsulfamoyl)phenyl]nitrone], in data set [4], the concentration peaked (Cmax) at 1.59 ng/mL, the clearance is 63.3 mL/min/kg, the Vd stood at 2.84 L/kg and the Tmax turned out to be 8.4 min. Moreover, in data set [4], the bioavailability amounted to 0.4% and the half-life was 30.6 min. For the same compound, in data set [2], the pEC50 is less than 3.00. In addition, the “% of Nitrone Remaining at 30 min (Human)” value in data set [3] was 100%.

The Cmax is the highest concentration seen after dosing. As a reminder, the Tmax is the time from dosing to the highest level. One may read the bioavailability as dose-corrected exposure relative to a reference, in per cent.
